Consider three compounds from patent US20190054022A1, “FORMULATIONS OF SITE-SPECIFIC, MICROPARTICULATE COMPOSITIONS AND THEIR USE TO IMPROVE OUTCOME AFTER ANEURSYMAL SUBARACHNOID HEMORRHAGE” (Edge Therapeutics, Inc., priority 2016, published 2019).

Data set [1] concerns patients with SAH secured by surgical clipping. The note with it: cited from earlier work.
For data set [2], the system named is patients with SAH secured by endovascular coiling. The note with it: cited from earlier work; for patients with primary end point: placebo 27%; for patients with poor outcome (extended Glasgow Outcome Scale score <1=4): placebo 24%.
Data set [3] has as its system patients with aneurysmal SAH. The note with it: in vivo; cited from earlier work.
Data set [4] can be described thus: Mongrel dog SAH study: plasma and CSF nimodipine concentration. The note with it: oral 5.2 mg/kg daily, day 3 (highest), n=7. The class given is in vivo, mongrel dogs.
For data set [5] the following is noted: oral, total single day dose of 360 mg; cited from earlier work.
For data set [6], the system named is double hemorrhage dog model of SAH. In words: Mongrel dog SAH efficacy study: angiographic vasospasm (basilar artery diameter). The class given is in vivo, mongrel dogs. Here is the method:
Dose translation from animal to human studies revisited. […] Dogs were euthanized on day 28 or 49. Dogs were anesthetized as described above, blood was collected and blood pressure, temperature, heart rate and oxygen saturation were monitored continuously while animals were under anesthesia. Blood gases were obtained before and after the injections. Cerebral angiography was performed through a 4F catheter inserted into the femoral artery and advanced under fluoroscopic guidance into the proximal portion of one vertebral artery using a guide wire. […] Images were captured digitally using identical exposure factors and magnification and an internal magnification standard was included in every angiogram. […] One half of the blood was injected, followed by injection of microparticles and then the remaining blood. The needle was withdrawn and the dogs were kept 30° head down for 15 minutes after which the femoral catheter was removed, the artery was ligated, and the incision was closed. For […] injection, the blood was injected into the cisterna magna and then the dog was placed prone in a stereotactic unit. […] Blood was injected into the cisterna magna using the same procedure as on day 1 except that microparticles were not injected. Angiography was repeated on days 8 and 15. The diameter of the basilar artery was measured at 5 equally spaced points by two blinded observers and the means averaged. Angiographic vasospasm was assessed by comparing the diameters of basilar arteries from Days 1, 8 and 15 and the time course and severity of angiographic vasospasm was determined. Dogs were weighed weekly and examined daily for 14 days, including behavior examination [Zhou C, Yamaguchi […], Zhang J H. Role of p53 and apoptosis in cerebral vasospasm after experimental subarachnoid hemorrhage. J Cereb Blood Flow Metab 2005; 25:572-82.]. […] Indirect blood pressure was measured in awake dogs daily for the first 14 days and weekly thereafter.

Data set [7] shares this test system. In words: Mongrel dog SAH study: behavior, blood pressure, microthrombi, neuronal injury. The class given is in vivo, mongrel dogs. The settings on record: placebo microparticle plus oral nimodipine. Here is the method: Blood was injected into the cisterna magna using the same procedure as on day 1 except that microparticles were not injected. Angiography was repeated on days 8 and 15. The diameter of the basilar artery was measured at 5 equally spaced points by two blinded observers and the means averaged. Angiographic vasospasm was assessed by comparing the diameters of basilar arteries from Days 1, 8 and 15 and the time course and severity of angiographic vasospasm was determined. Dogs were weighed weekly and examined daily for 14 days, including behavior examination [Zhou C, Yamaguchi […], Zhang J H. Role of p53 and apoptosis in cerebral vasospasm after experimental subarachnoid hemorrhage. J Cereb Blood Flow Metab 2005; 25:572-82.]. […] Indirect blood pressure was measured in awake dogs daily for the first 14 days and weekly thereafter. Dogs were euthanized by an intravenous overdose of sodium pentobarbital. They were perfused through the heart with PBS followed by 10% neutral buffered formalin. […] Neuronal degeneration and apoptosis were scored by a pathologist blinded to the assigned group on a semi-quantitative scale as normal, minimal, mild, moderate or severe. Microthrombi present in three (3) 100×100 μm fields were counted.

The nature of data set [8]: Nimodipine release in vivo: plasma concentration after subcutaneous injection. On the set-up: species or system Wistar rats. The settings on record: 20 mg/kg or 200 mg/kg. Here is the method: A mobile phase of water:methyl alcohol:tetrahydrofuran was used (60:20:20) at 2 mL/min with detection at 235 nm.
Blood samples were collected from two alternating cohorts of 2 or 3 animals/cohort in the microparticle formulation-injected groups. Collection was immediately before injection and then 1, 12, and 24 hours post dose, and on days 4, 8, 11, and 15. After the last blood sample collection interval, the surviving animals were euthanized via carbon dioxide inhalation. Animals were euthanized by cervical dislocation and the carcasses were discarded.

The target of another data set is T1, R-type calcium current (Rattus norvegicus, UniProt Q07652).
T1 construct: R-type calcium current in the neurohypophysial nerve endings at 40 nM concentration; host or cells: neurohypophysial nerve endings
The settings on record: at 40 nM concentration; cited from earlier work.

A further data set deals with N-type calcium current (Homo sapiens, UniProt Q00975). The note with it: at 300 nM to 500 nM; cited from earlier work.
Data set [9] has as its system K+ and Na+ currents, and L, P/Q and T-type calcium currents. The settings on record: cited from earlier work.
[10] abbreviates: placebo microparticles + oral nimodipine 5.2 mg/kg daily for 21 days, n = 8.

Like-named read-outs stand apart in the source and are kept apart here.

T1 sequence (Q07652 whole entry): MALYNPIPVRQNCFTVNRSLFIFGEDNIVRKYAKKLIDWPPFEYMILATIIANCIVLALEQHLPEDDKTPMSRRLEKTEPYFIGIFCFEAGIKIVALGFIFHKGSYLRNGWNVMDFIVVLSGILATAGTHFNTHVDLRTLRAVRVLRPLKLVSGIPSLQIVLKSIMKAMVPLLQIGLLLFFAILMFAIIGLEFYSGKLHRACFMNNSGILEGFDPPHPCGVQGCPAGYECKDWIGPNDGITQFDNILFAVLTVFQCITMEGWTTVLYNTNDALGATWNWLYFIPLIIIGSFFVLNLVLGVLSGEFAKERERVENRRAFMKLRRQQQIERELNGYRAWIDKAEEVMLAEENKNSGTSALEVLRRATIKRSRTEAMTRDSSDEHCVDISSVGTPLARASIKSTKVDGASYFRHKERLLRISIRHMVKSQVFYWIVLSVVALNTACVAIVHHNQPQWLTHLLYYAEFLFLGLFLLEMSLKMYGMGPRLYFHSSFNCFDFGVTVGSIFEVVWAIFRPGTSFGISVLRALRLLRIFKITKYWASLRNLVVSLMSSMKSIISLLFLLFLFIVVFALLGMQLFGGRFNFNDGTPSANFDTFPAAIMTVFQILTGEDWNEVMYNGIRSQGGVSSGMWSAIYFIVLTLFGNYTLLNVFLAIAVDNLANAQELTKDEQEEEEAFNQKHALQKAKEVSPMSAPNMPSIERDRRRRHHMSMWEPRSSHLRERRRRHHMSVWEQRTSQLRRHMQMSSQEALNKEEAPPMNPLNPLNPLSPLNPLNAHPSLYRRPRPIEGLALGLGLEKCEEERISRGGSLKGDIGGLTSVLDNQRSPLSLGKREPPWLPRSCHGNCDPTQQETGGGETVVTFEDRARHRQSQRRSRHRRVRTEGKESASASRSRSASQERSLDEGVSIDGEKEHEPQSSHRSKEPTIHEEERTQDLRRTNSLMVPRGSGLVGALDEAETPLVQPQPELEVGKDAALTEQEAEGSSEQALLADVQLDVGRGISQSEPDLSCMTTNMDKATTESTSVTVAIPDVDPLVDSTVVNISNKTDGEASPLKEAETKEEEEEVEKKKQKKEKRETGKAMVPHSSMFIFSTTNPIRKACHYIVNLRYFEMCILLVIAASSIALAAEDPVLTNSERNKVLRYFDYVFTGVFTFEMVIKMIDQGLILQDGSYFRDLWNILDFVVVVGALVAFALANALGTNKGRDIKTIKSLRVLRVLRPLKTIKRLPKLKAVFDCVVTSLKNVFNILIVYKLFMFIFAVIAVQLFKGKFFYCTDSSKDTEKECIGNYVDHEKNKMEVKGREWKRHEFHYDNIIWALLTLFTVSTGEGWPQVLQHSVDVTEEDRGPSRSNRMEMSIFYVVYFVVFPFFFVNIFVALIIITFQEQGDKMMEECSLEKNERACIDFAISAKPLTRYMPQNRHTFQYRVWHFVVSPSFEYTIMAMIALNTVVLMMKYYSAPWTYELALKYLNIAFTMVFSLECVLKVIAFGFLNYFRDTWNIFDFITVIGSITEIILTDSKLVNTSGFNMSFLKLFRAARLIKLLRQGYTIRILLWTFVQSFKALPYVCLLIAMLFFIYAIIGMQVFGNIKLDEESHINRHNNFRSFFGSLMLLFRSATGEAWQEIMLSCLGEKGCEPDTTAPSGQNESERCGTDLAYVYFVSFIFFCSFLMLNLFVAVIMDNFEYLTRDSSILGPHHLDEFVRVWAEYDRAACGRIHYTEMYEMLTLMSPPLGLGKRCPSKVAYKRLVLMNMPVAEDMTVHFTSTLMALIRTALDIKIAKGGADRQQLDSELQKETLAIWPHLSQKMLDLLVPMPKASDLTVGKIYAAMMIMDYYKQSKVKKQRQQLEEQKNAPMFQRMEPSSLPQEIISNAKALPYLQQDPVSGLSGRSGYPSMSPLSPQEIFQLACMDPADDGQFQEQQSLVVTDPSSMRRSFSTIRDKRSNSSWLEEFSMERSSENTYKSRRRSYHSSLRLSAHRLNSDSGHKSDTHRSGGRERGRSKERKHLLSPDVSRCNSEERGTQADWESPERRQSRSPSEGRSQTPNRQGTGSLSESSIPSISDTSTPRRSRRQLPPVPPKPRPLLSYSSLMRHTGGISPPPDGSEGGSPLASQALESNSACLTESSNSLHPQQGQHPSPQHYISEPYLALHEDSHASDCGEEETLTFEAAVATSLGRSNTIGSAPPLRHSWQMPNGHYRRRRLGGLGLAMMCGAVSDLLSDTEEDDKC
N-type calcium current, sequence (Q00975 whole entry): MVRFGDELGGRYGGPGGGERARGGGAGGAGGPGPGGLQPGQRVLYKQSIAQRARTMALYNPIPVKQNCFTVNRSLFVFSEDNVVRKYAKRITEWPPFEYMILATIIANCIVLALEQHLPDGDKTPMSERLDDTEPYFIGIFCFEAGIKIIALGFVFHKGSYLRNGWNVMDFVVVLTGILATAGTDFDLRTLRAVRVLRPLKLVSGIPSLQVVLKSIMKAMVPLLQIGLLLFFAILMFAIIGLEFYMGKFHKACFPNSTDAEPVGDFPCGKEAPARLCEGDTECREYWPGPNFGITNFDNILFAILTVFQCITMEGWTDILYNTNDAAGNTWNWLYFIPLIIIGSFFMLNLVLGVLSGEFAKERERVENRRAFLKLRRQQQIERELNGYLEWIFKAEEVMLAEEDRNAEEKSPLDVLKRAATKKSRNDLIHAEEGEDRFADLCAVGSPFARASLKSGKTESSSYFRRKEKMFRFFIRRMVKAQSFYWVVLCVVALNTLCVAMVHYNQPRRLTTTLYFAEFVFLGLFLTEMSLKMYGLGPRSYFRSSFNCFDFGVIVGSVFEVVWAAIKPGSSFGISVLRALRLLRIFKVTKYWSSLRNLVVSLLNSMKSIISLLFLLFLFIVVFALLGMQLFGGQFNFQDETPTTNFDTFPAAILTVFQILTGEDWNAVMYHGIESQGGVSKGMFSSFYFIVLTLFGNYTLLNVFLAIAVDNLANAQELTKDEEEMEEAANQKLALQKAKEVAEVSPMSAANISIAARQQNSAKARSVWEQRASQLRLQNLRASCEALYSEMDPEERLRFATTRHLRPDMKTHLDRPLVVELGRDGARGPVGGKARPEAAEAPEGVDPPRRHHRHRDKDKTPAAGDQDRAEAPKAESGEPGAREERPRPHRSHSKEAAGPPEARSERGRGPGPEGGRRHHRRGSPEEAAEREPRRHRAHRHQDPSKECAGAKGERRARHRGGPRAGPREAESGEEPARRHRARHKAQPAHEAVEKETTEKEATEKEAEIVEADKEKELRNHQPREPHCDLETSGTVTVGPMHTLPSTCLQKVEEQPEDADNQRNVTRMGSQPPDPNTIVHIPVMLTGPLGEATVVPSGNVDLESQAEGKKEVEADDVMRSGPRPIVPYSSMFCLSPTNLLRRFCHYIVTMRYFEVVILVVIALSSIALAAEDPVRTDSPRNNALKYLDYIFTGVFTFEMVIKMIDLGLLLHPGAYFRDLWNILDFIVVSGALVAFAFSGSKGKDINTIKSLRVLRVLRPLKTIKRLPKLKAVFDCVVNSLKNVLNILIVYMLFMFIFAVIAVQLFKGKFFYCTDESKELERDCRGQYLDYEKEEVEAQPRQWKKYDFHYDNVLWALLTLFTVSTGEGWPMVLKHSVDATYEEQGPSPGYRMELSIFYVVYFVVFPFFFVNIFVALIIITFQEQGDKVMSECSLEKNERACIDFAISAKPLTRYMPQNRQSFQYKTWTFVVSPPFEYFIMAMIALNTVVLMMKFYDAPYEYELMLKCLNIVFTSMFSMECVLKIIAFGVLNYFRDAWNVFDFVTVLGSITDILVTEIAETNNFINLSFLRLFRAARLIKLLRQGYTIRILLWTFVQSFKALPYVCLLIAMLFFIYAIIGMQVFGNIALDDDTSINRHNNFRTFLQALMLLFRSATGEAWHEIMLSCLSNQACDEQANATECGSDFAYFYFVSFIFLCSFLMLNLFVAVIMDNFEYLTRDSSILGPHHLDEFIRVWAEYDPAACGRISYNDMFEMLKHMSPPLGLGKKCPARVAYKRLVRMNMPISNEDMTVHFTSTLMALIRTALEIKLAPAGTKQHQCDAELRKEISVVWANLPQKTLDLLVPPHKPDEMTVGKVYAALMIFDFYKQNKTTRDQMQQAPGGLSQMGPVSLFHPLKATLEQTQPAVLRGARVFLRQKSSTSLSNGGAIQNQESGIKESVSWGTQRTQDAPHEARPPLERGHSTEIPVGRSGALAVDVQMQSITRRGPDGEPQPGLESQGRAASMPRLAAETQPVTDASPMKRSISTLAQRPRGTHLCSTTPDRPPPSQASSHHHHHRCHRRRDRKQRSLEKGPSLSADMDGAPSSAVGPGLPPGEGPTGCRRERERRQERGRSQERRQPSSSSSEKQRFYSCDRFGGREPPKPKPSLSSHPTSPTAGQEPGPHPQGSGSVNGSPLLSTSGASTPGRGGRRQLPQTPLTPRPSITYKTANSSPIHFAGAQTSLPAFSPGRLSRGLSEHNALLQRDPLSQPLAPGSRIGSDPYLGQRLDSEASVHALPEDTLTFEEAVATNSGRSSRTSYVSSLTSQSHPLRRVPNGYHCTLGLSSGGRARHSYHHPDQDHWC

Take `COc1ccccc1Oc1c(NS(=O)(=O)c2ccc(C)cn2)nc(-c2ccnc(-c3nnn[nH]3)c2)nc1OCCO` [clazosentan]: the “patients meeting primary composite endpoint (week 6): all-cause mortality, vasospasm-related new cerebral infarcts, delayed ischemic neurological deficit, rescue therapy” value in data set [1] (5 mg/h up to 14 days, 161 of 764, placebo 25%) is recorded as 21%. In addition, in data set [1] (5 mg/h, 95% CI −4 to 33, p=0.10), the “relative risk reduction, primary endpoint” value was 17%. Further, the “patients with poor functional outcome (GOSE score <1=4)” value in [1] (5 mg/h, 224 patients, placebo 25%) is given as 29%. Moreover, the “Mortality (week 12)” value in data set [1] (5 mg/h, both groups) is recorded as 6%. The “adverse events versus placebo” value is “Lung complications, anaemia, and hypotension were more common” in data set [1] (5 mg/h); “Pulmonary complications, anemia, and hypotension were more common” in data set [2] (5 or 15 mg/h). The “effect on mortality and vasospasm-related morbidity or functional outcome” value in [1] (5 mg/h) is recorded as “no significant effect”. In addition, the “relative risk reduction, poor functional outcome” value in data set [1] (5 mg/h, −45 to 4, p=0.10) is on record as −18%. The “patients with primary end point” value in data set [2] (5 mg/h, 47/194) was 24%; in [2] (15 mg/h, 28/188), 15%. Further, the “odds ratio, primary end point” value in [2] (5 mg/h, 95% CI 0.479-1.289, P=0.340) is listed as 0.786; in [2] (15 mg/h, 95% CI 0.275-0.818, P=0.007), 0.474. The “odds ratio, poor outcome” value was 0.918 in data set [2] (5 mg/h, 95% CI 0.546-1.544, P=0.748) and 1.337 in data set [2] (15 mg/h, 95% CI 0.802-2.227, P=0.266). Moreover, the “patients with poor outcome (extended Glasgow Outcome Scale score <1=4)” value is given as 25% in data set [2] (5 mg/h) and 28% in [2] (15 mg/h). Moreover, in [2] (15 mg/h), the “post aneurysmal SAH vasospasm-related morbidity/all-cause mortality” value was “significantly reduced”. Moreover, in data set [2] (5 or 15 mg/h), the “outcome (extended Glasgow Outcome Scale)” value was “neither dose improved outcome”. Further, the “incidence of angiographic vasospasm after aneurysmal SAH” value in data set [3] is listed as “significantly reduced the incidence of angiographic vasospasm”.

Consider `COCCOC(=O)C1=C(C)NC(C)=C(C(=O)OC(C)C)C1c1cccc([N+](=O)[O-])c1` (centres unmarked) [nimodipine, Isopropyl 2-methoxyethyl 1,4-dihydro-2,6-dimethyl-4-(m-nitrophenyl)-3,5-pyridinedicarboxylate], for which, in data set [4], the “concentration of nimodipine in CSF” value amounted to 1.56 ± 1.17 ng/mL. Moreover, the bioavailability result in data set [5] was “about 28%”. In addition, in [6] (setting [10]), the “% change compared to day 1, Day 8” value is given as “(−27.9 ± 3.0) %”; the “% change compared to day 1, Day 15” value is given as “(−11.7 ± 4.5) %”; the “Angiographic diameter of basilar artery (mm), Day 8” value is on record as 1.08 ± 0.12 mm; the “Angiographic diameter of basilar artery (mm), Day 15” value was 1.32 ± 0.17 mm. Moreover, the “Angiographic diameter of basilar artery (mm), Day 1” value in data set [6] (placebo microparticles + oral nimodipine 5.2 mg/kg daily for 21 days, n = 8, baseline) is listed as 1.51 ± 0.13 mm. Besides, the “basilar artery diameter 8 and 15 days after SAH versus day 1” value in data set [6] (placebo microparticles with oral nimodipine, ANOVA P=0.001) is listed as “significant reductions in basilar artery diameter”. In addition, the dogs with microthrombi entry in data set [7] was “one”. Besides, in data set [8], the “release of nimodipine over time in vivo (plasma)” value is “Sustained release of nimodipine over time was observed”.

SNX-482: the “block of R-type calcium current” value at R-type calcium current is “blocks”. Moreover, at N-type calcium current, the “block of N-type calcium current” value is listed as 30-50%. Also, the “effect on other currents” value in [9] is given as “no effect is observed”.
